Assay [1] deals with Epidermal growth factor receptor (Homo sapiens) (UniProt P00533). Kind of assay: Inhibition of human recombinant EGFR at 10 uM relative to control.
The target in assay [2] is Receptor tyrosine-protein kinase erbB-2 (Homo sapiens) (UniProt P04626). As to the kind of experiment: Inhibition of human recombinant HER-2 at 10 uM relative to control.
The target of assay [3] is T1, Fas-activated serine/threonine kinase (Homo sapiens, UniProt Q14296).
T1 sequence (Q14296 whole entry): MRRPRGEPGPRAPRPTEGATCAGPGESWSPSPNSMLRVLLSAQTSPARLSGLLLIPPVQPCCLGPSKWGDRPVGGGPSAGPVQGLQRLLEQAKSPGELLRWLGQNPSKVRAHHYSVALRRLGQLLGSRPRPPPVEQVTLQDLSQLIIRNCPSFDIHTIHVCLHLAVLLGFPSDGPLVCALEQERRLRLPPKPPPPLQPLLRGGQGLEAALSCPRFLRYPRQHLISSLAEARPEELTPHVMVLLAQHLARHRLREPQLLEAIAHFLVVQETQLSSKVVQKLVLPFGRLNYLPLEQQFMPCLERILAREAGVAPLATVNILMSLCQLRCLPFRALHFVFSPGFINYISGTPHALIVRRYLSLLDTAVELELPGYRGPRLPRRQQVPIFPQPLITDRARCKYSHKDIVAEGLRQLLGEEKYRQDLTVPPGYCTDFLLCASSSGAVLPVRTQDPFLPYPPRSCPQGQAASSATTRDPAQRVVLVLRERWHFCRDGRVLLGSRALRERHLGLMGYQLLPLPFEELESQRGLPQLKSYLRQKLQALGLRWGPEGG
Kind of assay: Inhibition of […] human FASTK (355 to 444 residues) extracted from Escherichia coli BL21 (DE3) by Malachite Green dye based assay.

A further assay relates to MCF7. As to the kind of experiment: Antiproliferative activity against human MCF7 cells assessed as reduction in cell viability incubated for 48 hrs by MTT assay. The format is functional, cell-based. Particulars: MCF7, 48 h.
The next assay concerns HUVEC. As to the kind of experiment: Antiproliferative activity against HUVEC cells assessed as reduction in cell viability at 10 uM by alamar blue reagent based assay relative to control. The format is functional. Particulars: Homo sapiens.
Another assay has as its system Ehrlich. As to the kind of experiment: Antitumor activity against mouse Ehrlich carcinoma cell implanted in Swiss albino mouse model assessed as tumour growth inhibition at 10 mg/kg, po administered consecutively for 8 days relative to control. The format is functional. The settings on record: 192 h, time 8 day, read-out: TGI.
The subject of another assay is NCI-H522. As to the kind of experiment: Antiproliferative activity against human NCI-H522 cells overexpressing EGFR/HER-2 assessed as inhibition of cell growth at 10 uM relative to control. The format is functional.
The test system of a further assay is MDA-MB-468. Kind of assay: Antiproliferative activity against human MDA-MB-468 cells overexpressing EGFR/HER-2 assessed as inhibition of cell growth at 10 uM relative to control. The format is functional.
The subject of the next assay is SK-OV-3. Kind of assay: Antiproliferative activity against human SK-OV-3 cells overexpressing EGFR/HER-2 assessed as inhibition of cell growth at 10 uM relative to control. The format is functional.
Assay [4] deals with Vascular endothelial growth factor receptor 2 (Homo sapiens) (UniProt P35968). As to the kind of experiment: Inhibition of N-terminal GST-tagged human recombinant VEGFR2 extracted from Sf9 cells at 10 uM relative to control. The format is cell-free.

The inhibition is the relative decrease from the control value, in per cent. For orientation: IC50 means the concentration that gives 50% inhibition.

Epidermal growth factor receptor (Homo sapiens), sequence (P00533 whole entry): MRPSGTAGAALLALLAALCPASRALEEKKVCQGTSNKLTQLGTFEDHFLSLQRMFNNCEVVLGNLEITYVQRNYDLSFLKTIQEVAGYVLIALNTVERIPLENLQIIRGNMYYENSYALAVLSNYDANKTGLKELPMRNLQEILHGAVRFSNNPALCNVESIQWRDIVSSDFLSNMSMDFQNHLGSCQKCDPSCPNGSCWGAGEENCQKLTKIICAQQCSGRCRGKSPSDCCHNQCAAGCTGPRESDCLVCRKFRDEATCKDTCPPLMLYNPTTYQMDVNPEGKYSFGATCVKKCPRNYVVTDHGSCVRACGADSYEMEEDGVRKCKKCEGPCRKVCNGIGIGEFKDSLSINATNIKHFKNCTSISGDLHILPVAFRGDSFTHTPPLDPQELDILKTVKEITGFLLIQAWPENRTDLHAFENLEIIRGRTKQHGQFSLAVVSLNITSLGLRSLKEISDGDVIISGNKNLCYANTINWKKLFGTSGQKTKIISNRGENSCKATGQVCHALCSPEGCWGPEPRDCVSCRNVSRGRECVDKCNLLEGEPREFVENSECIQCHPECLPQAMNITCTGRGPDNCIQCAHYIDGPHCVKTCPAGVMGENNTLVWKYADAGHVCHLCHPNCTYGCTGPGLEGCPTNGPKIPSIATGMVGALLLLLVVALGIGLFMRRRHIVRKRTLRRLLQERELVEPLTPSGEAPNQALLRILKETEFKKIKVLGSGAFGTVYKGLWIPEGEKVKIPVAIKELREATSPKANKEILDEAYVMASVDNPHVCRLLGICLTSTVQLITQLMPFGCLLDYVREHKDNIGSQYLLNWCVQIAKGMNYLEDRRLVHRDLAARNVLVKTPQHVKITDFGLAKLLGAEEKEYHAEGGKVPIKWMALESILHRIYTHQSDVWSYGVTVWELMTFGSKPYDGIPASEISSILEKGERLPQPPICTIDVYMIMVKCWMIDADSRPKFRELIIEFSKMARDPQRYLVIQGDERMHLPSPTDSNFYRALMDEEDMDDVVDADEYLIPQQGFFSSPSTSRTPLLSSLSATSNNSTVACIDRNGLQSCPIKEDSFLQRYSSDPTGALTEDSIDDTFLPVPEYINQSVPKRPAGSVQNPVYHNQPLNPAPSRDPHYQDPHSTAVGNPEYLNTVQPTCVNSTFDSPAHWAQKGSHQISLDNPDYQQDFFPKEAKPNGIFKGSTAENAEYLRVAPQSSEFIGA
Receptor tyrosine-protein kinase erbB-2 (Homo sapiens), sequence (P04626 whole entry): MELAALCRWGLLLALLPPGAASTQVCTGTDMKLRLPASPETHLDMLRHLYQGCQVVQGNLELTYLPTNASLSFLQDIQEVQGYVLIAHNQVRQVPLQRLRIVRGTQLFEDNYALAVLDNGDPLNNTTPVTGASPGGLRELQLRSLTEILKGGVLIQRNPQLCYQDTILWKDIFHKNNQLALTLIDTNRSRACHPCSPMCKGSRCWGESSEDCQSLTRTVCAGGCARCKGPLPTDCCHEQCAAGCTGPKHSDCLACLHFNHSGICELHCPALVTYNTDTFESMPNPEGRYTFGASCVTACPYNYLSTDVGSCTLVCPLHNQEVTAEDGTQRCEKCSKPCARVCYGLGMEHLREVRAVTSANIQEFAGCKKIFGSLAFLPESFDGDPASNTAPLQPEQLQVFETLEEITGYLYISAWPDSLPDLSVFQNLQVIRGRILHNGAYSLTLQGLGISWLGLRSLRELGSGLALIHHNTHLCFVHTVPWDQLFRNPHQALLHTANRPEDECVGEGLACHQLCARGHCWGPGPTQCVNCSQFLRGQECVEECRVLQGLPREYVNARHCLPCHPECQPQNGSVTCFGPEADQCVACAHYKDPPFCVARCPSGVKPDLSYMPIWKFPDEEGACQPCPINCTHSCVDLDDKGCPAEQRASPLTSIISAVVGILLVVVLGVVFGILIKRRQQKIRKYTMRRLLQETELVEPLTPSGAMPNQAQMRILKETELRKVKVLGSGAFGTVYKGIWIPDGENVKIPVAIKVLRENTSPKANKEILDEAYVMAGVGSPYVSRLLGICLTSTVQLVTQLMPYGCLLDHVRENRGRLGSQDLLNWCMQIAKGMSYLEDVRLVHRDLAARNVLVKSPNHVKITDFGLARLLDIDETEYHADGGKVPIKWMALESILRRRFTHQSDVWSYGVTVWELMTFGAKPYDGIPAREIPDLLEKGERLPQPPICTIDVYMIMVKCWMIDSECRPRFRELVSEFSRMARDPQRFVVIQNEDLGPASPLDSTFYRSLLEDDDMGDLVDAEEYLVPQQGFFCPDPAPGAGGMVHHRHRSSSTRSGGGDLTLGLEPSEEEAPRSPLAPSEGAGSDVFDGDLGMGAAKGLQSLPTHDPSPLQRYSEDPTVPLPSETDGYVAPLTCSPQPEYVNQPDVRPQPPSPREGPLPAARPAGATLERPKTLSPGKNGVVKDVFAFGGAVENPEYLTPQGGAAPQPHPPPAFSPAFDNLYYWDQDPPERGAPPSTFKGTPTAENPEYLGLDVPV
Vascular endothelial growth factor receptor 2 (Homo sapiens), sequence (P35968 whole entry): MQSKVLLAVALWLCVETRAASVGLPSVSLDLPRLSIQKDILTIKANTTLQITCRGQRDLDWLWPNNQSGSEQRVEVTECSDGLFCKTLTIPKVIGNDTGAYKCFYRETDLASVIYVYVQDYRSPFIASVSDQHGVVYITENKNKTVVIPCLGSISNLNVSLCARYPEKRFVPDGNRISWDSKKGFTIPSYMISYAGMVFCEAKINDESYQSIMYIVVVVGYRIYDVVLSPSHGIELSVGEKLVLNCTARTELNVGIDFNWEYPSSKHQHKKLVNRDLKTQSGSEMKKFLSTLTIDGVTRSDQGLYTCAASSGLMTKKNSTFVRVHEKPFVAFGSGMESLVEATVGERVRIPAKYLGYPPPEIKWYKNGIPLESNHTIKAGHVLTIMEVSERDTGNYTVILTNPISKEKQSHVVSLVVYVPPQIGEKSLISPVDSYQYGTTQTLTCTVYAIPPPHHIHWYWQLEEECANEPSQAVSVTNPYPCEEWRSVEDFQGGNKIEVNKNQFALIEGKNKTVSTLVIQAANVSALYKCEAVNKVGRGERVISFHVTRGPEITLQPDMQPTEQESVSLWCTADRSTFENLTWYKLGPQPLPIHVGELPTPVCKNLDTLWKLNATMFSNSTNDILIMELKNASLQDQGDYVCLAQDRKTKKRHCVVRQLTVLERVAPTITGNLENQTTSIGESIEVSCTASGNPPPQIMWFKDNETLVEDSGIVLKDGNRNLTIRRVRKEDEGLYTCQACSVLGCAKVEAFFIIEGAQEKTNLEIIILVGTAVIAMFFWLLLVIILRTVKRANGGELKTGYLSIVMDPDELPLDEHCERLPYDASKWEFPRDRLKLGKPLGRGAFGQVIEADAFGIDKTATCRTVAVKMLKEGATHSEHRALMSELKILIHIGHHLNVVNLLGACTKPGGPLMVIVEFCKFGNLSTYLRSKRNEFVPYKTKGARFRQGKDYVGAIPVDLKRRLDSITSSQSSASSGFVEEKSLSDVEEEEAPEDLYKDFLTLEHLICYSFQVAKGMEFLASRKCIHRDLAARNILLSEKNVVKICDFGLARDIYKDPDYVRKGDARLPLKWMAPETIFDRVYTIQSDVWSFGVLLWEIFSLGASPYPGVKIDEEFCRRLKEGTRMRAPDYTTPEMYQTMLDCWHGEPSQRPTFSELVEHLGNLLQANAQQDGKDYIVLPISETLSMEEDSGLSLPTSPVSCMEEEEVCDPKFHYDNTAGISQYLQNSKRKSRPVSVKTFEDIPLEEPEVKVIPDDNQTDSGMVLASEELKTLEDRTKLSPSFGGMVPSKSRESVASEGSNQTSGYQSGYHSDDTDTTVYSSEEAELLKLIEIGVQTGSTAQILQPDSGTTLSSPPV

As for `c1ccc(COc2ccc(Nc3ncnc4sc5c(c34)CCCC5)cc2)cc1`, the inhibition in assay [1] is 93%; in assay [2], 84%.
For the compound `COc1ccc(/C=C/C(=O)c2ccc(Nc3ncnc4sc5c(c34)CCCC5)cc2)cc1OC`, the values for the IC50 (in [3]; in the assay with MCF7) were 0.15 µM and 8.2 µM, respectively.
`COc1cccc(NC(=O)Nc2ccc(Oc3ncnc4sc5c(c34)CCCC5)cc2)c1`: in the assay on HUVEC, the inhibition at 10 µM worked out at 79.2%.
For `O=C(Nc1ccccc1)Nc1ccc(Oc2ncnc3sc4c(c23)CCCC4)cc1`, the inhibition at 10 µM with HUVEC was 64.3%.
As for `Cc1cccc(NC(=O)Nc2ccc(Oc3ncnc4sc5c(c34)CCCC5)cc2)c1`, the inhibition in vivo at 10 mg/kg in the assay with Ehrlich is 86.4%. Further, the inhibition at 10 µM in the assay on HUVEC is 82%.
`O=C(/C=C/c1ccccc1)c1ccc(Nc2ncnc3sc4c(c23)CCCC4)cc1`: the IC50 in assay [3] turned out to be 0.32 µM; with MCF7 it was 20.2 µM.
With `Fc1ccc(COc2ccc(Nc3ncnc4sc5c(c34)CCCC5)cc2Cl)cc1`, the inhibition in assay [1] is 93%; in assay [2] it was 84%.
With `Cc1ccc(NC(=O)Nc2ccc(Oc3ncnc4sc5c(c34)CCCC5)cc2)cc1Cl`, the inhibition in vivo at 10 mg/kg in the assay on Ehrlich worked out at 82.7%. Moreover, in the assay with HUVEC, the inhibition at 10 µM is 46%.
For the compound `Fc1cccc(COc2ccc(Nc3ncnc4sc5c(c34)CCCC5)cc2Cl)c1`, the inhibition at 10 µM in the assay on NCI-H522 stood at 56%; in the assay on MDA-MB-468, 68.2%; in the assay on SK-OV-3, 80.6%. The inhibition in [1] worked out at 93%; in assay [2], 84%.
With `Clc1cc(Nc2ncnc3sc4c(c23)CCCC4)ccc1OCc1ccccc1`, the inhibition in assay [1] was found to be 93%; in assay [2] it was 84%.
With `O=C(Nc1ccc(Cl)cc1)Nc1ccc(Oc2ncnc3sc4c(c23)CCCC4)cc1`, the inhibition in [4] came out at 46%.
`Fc1cccc(COc2ccc(Nc3ncnc4sc5c(c34)CCCC5)cc2)c1`: the inhibition amounted to 93% in assay [1] and 84% in assay [2].
As to `O=C(/C=C/c1ccc(Cl)cc1)c1ccc(Nc2ncnc3sc4c(c23)CCCC4)cc1`, the IC50 in assay [3] came out at 0.17 µM; in the assay with MCF7 it was 6.52 µM.

The record behind these values is ChEMBL document CHEMBL6114993, “Thienopyrimidine: A promising scaffold in the development of kinase inhibitors with anticancer activities” (Bioorg Med Chem, 2025).
